This note sets out measurements from patent US12291522B2, “Galectin-3 inhibitors” (BRISTOL-MYERS SQUIBB COMPANY, priority 2020, dated 2025).

What is called IC50 is the concentration needed to halve the response being measured.

SMILES strings stand for the structures. Read-outs that look alike come from different tables or passages of the source. A value given as a limit tells only on which side of the number the result lay.

The target in experiment [1] is His-tagged recombinant human Gal-3 (hGal-3) (Homo sapiens, UniProt P17931). In words: Gal-3 HTRF assay (His-tagged hGal-3 / B-ASF). Type of experiment: binding. Particulars: 15 nM hGal-3, 15 nM B-ASF. On the procedure:
ASSAY BUFFER Composition: 25 mM HEPES, 100 mM NaCl, 0.005% Tween 20, 0.05% BSA prepared in sterile water (all reagents from Sigma).
• Positive Control: 100% DMSO (1 μL)+His-tagged hGal-3 (20 μL)+B-ASF (20 μL)+Anti-His Terbium Antibody (5 μL)+Strep d2 Antibody (5 μL). • Negative Control: 100% DMSO (1 μL)+His-tagged hGal-3 (20 μL)+Anti His Terbium Antibody (5 μL)+Strep d2 Aantibody (5 μL). Stocks Preparation:
PROTOCOL: The Gal-3 assays were performed in 384 white Opti plates in three replicates at room temperature with gentle shaking at 250-300 rpmFrom the original stocks, […] working stock concentrations of His-tagged recombinant human Gal-3 (hGal-3) and that of B-ASF were prepared. From the working stock, 20 μL of hGal-3 (15 nM) and 20 μL B-ASF (15 nM) were added to the plates. In Negative Control, only hGal-3 was added. A concentration range of 50× working stocks were prepared for the compounds in 100% DMSO. Aliquots of luL of the compounds were added to the wells and pre-incubated with 20 μL hGal-3 per well for 30 minutes Then 20 μL B-ASF wereadded and incubated for another 1 hour. To detect the signal, 5 μL (final conc. of 1.0 nM) terbium labelled Anti-His antibody was added and incubated for 30 min followed by adding 5 μL (final conc. of 20 nM) Streptavidin d2 and incubation for another 1 hour. The assay signal was detected using HTRF screen protocol (Excitation wavelength=340 nm, emission wavelength=615 nm/665 nm) on Envision 2104 Multilabel Reader. Data analysed using Toolset and Curve Master. Results are reported in the experimental section (IC50 in μM).

The target of experiment [2] is T1, hCRBN (NanoLuc-CRBN fusion construct in HEK-293 cells) (Homo sapiens, UniProt Q96SW2).
T1 construct: expressed in transfected cells; host or cells: HEK-293
In words: CRBN BRET Target Engagement. Format: cell-based. Particulars: NanoLuc-CRBN transfected HEK-293 cells, BRET with CRBN Probe. On the procedure: CRBN BRET Target Engagement (hCRBN IC50 (μM))
NanoLuc-CRBN fusion construct was transfected in HEK-293 cells using FuGENE HD (Promega) according to the manufacturer's protocol. In brief, Nluc-CRBN was diluted into Transfection Carrier DNA (Promega) 1:10 (mass/mass), to which FuGENE HD was 1:3 (μg DNA:μL FuGENE HD). One part (vol) of DNA:FuGENE HD complexes were combined with 20 parts (vol) of HEK-293 cells suspended at a density of […]. Cells were incubated for ˜20 hr at 37° C./5% CO2. Following transfection, cells were washed and resuspended at 200,000 cells/mL in OptiMEM without phenol red (Gibco).
For BRET measurements, cells were seeded in a 384-well nonbinding surface plate (Corning) plate for a final count of 10,000 cells/well. Compounds were dissolved at 10 mM in dimethylsulfoxide (DMSO) and evaluated at eleven concentrations using a high concentration of […]. CRBN Probe was used for equilibrium measurements, employing a final concentration of approximately EC50-80. For live-cell measurements, 20 nM of CRBN Probe was added. For the live-cell assay conditions, the plates were incubated for 2 hours at 37° C./5% CO2. NanoBRET NanoGlo Substrate and Extracellular Nanoluc Inhibitor (Promega) were added according to manufacturer's guidelines. For lytic cell measurements, digitonin was added to the cells to a final concentration of 50 μg/mL and 20 nM of CRBN Probe was added. To measure NanoBRET in permeabilized cells, extracellular Nluc inhibitor was omitted during the detection step. For all BRET experiments, the Envision 2015 (Perkin Elmer) equipped with a BRET2 Enh mirror, BRET 647 nM/75 nM Bandwidth and BC703 460 nM/80 nM Bandwidth filters was used for readouts. Each read was integrated for 0.5 s.
To determine compound potency (IC50), BRET ratios for each dilution series was first normalized to a % Inhibition value via Equation 1, where “S” represents Sample BRET, “B” represents Background BRET, and “T” represents Total BRET. In this equation, the background control (B) consists of NanoLuc-CRBN expressing cells and no CRBN Probe. The total BRET Ratio (T) consists of NanoLuc-CRBN expressing cells, CRBN Probe, and an amount of DMSO at a concentration equivalent to that added when testing compounds.
Following normalization, the percent inhibition values are plotted as a function of compound concentration and fit to Equation 2. […]
(BRET reads energy transfer from a luciferase to a nearby fluorophore.)

The target of experiment [3] is T2, Gal3 (Human Galectin-3) in THP-1 cells (Homo sapiens, UniProt P17931).
T2 construct: host or cells: THP-1
In words: ELISA Gal3 Degradation Assay in THP-1 Cells. Type of experiment: cell-based. The conditions noted are these: 48 hours, culture media Gal3 by ELISA. As for the experimental part:
[formula] ELISA Gal3 Degradation Assay in THP-1 Cells
THP-1 cells (ATCC, Cat #TIB-202), a human monocyte cell line derived from leukemia were plated at 2E6 cells/mL in 200 uL/well of RPMI 1640 (ThermoFisher, Cat #11835) in 96-well plates. Cells were treated with DMSO as a control and various concentrations of compounds for 48 hours. After the treatment, the culture media were collected. The PBS washed cell pellets were lysed in Lysis Buffer (Cell Signaling, Cat #9803) supplemented with 1XProtease Inhibitor Cocktail (Cell Signaling, Cat #5872). Gal3 levels in culture media and cell lysates were quantified by ELISA assays (Human Galectin-3 DuoSet ELISA kit, R&D Systems, Cat #DY1154) according to manufacturer's instructions. The cell culture media were also used for the assessment of cellular toxicity (LDH Assay kit, R&D Systems, DY994). The IC50 (degradation concentration at 50%) values were calculated based on the cellular Gal3 protein levels using DMSO as the control.
A general note: ELISA stands for enzyme-linked immunosorbent assay.

Where [4] appears, read: test 1, read-out: Supernatant (IC50) test 1.
Where [5] appears, read: test 2, read-out: Supernatant (IC50) test 2.

Chain of His-tagged recombinant human Gal-3 (hGal-3) (P17931 whole entry): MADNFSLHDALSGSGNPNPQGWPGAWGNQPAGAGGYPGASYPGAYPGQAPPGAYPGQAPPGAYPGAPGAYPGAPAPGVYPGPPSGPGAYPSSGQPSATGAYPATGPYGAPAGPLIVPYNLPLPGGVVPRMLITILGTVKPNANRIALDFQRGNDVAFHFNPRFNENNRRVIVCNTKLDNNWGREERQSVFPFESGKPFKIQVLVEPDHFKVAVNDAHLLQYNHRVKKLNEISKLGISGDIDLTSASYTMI
T2 sequence (P17931 whole entry): as above
T1 sequence (Q96SW2 whole entry, the tested form may be a part): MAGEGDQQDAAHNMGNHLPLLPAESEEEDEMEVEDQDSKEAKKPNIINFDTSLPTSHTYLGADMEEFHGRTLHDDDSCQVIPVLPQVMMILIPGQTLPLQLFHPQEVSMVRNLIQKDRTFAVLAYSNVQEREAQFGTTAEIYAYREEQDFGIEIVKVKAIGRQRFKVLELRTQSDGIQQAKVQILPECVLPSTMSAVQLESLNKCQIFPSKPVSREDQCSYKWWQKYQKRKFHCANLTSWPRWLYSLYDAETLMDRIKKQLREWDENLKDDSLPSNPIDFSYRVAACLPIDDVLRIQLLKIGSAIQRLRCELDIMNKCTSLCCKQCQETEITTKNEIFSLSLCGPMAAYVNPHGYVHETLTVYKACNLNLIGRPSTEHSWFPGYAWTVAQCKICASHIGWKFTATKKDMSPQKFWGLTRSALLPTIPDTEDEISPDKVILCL

On to `Cc1nc([C@@H]2O[C@H](CO)[C@H](O)[C@H](n3cc(-c4cc(F)c(Cl)c(F)c4)nn3)[C@H]2OCC(=O)N[C@H]2C[C@@H](Oc3ccc(C(=O)Nc4cccc5c4CN(C4CCC(=O)NC4=O)C5=O)nc3)C2)n(-c2cc(Cl)ccc2C(F)(F)F)n1` (stereo partly drawn) [Example 21], for which the half-maximal inhibitory concentration (IC50) in experiment [1] came to 0.07 µM; in experiment [2], 0.93 µM; in experiment [3] (setting [4]), 1.04 µM; in experiment [3] (setting [5]), 0.023 µM.
In the same order, the values of `Cc1nc([C@@H]2O[C@H](CO)[C@H](O)[C@H](n3cc(-c4cc(F)c(Cl)c(F)c4)nn3)[C@H]2OCC(=O)N[C@H]2C[C@H](Oc3ccc(C(=O)Nc4ccc5c(c4)CN(C4CCC(=O)NC4=O)C5=O)nc3)C2)n(-c2cc(Cl)ccc2C(F)(F)F)n1` (stereo partly drawn) [Example 18] are 0.22 µM, 0.11 µM, 0.013 µM and 0.014 µM.
Regarding `Cc1nc([C@@H]2O[C@H](CO)[C@H](O)[C@H](n3cc(-c4cc(F)c(Cl)c(F)c4)nn3)[C@H]2OCC(=O)N2CC(Oc3ccc(C(=O)Nc4ccc5c(c4)CN(C4CCC(=O)NC4=O)C5=O)nc3)C2)n(-c2cc(Cl)ccc2C(F)(F)F)n1` (stereo partly drawn) [Example 35], the IC50 in experiment [1] was 0.077 µM; in experiment [2], 0.498 µM; in experiment [3] (setting [4]), 0.314 µM; in experiment [3] (setting [5]), 0.338 µM.
As to `Cc1nc([C@@H]2O[C@H](CO)[C@H](O)[C@H](n3cc(-c4cc(F)c(Cl)c(F)c4)nn3)[C@H]2OCC(=O)N[C@H]2C[C@@H](Oc3ccc(C(=O)Nc4ccc5c(c4)CN([C@@H]4CCC(=O)NC4=O)C5=O)nc3)C2)n(-c2cc(Cl)ccc2C(F)(F)F)n1` [Example 6, 5-(cis-3-(2-(((2S,3R,4S,5R,6R)-2-(1-(5-chloro-2-(trifluoromethyl)phenyl)-3-methyl-1H-1,2,4-triazol-5-yl)-4-(4-(4-chloro-3,5-difluorophenyl)-1H-1,2,3-triazol-1-yl)-5-hydroxy-6-(hydroxymethyl)tetrahydro-2H-pyran-3-yl)oxy)acetamido)cyclobutoxy)-N-(2-((R)-2,6-dioxopiperidin-3-yl)-1-oxoisoindolin-5-yl)picolinamide], the IC50 in experiment [1] is 0.074 µM; in experiment [2], more than 50 µM; in experiment [3] (setting [4]), 0.039 µM; in experiment [3] (setting [5]), 0.015 µM.
Consider `Cc1nc([C@@H]2O[C@H](CO)[C@H](O)[C@H](n3cc(-c4cc(F)c(Cl)c(F)c4)nn3)[C@H]2OCC(=O)N2CC(COc3ccc(C(=O)Nc4cccc5c4CN(C4CCC(=O)NC4=O)C5=O)nc3)C2)n(-c2cc(Cl)ccc2C(F)(F)F)n1` (stereo partly drawn) [Example 32], for which the half-maximal inhibitory concentration (IC50) in experiment [1] is 0.094 µM; in experiment [2] it was 13.7 µM; in experiment [3] (setting [4]), 1.25 µM; in experiment [3] (setting [5]) it was 1.58 µM.
As for `Cc1nc([C@@H]2O[C@H](CO)[C@H](O)[C@H](n3cc(-c4cc(F)c(Cl)c(F)c4)nn3)[C@H]2OCC(=O)N2CC(COc3ccc(C(=O)Nc4ccc5c(c4)C(=O)N(C4CCC(=O)NC4=O)C5)cc3)C2)n(-c2cc(Cl)ccc2C(F)(F)F)n1` (stereo partly drawn) [Example 11, 4-((1-(2-(((2S,3R,4S,5R,6R)-2-(1-(5-Chloro-2-(trifluoromethyl)phenyl)-3-methyl-1H-1,2,4-triazol-5-yl)-4-(4-(4-chloro-3,5-difluorophenyl)-1H-1,2,3-triazol-1-yl)-5-hydroxy-6-(hydroxymethyl)tetrahydro-2H-pyran-3-yl)oxy)acetyl)azetidin-3-yl)methoxy)-N-(2-(2,6-dioxopiperidin-3-yl)-3-oxoisoindolin-5-yl)benzamide], the IC50 is 0.04 µM in experiment [1], 1.27 µM in experiment [2], 0.035 µM in experiment [3] (setting [4]) and 0.027 µM in experiment [3] (setting [5]).
As to `Cc1nc([C@@H]2O[C@H](CO)[C@H](O)[C@H](n3cc(-c4cc(F)c(Cl)c(F)c4)nn3)[C@H]2OCC(=O)N2CC(COc3ccc(C(=O)Nc4ccc5c(c4)CN(C4CCC(=O)N(C)C4=O)C5=O)cc3)C2)n(-c2cc(Cl)ccc2C(F)(F)F)n1` (stereo partly drawn) [Example 9, 4-((1-(2-(((2S,3R,4S,5R,6R)-2-(1-(5-Chloro-2-(trifluoromethyl)phenyl)-3-methyl-1H-1,2,4-triazol-5-yl)-4-(4-(4-chloro-3,5-difluorophenyl)-1H-1,2,3-triazol-1-yl)-5-hydroxy-6-(hydroxymethyl)tetrahydro-2H-pyran-3-yl)oxy)acetyl)azetidin-3-yl)methoxy)-N-(2-(1-methyl-2,6-dioxopiperidin-3-yl)-1-oxoisoindolin-5-yl)benzamide], the IC50 in experiment [1] came out at 0.085 µM; in experiment [2], 8.95 µM.
On the same counts, the results for `Cc1nc([C@@H]2O[C@H](CO)[C@H](O)[C@H](n3cc(-c4cc(F)c(Cl)c(F)c4)nn3)[C@H]2OCC(=O)NCCOCCOCCNC(=O)c2ccc3c(c2)C(=O)N(C2CCC(=O)N(C)C2=O)C3=O)n(-c2cc(Cl)ccc2C(F)(F)F)n1` (stereo partly drawn) [Example 16] are 0.069 µM and more than 50 µM.
As to `Cc1nc([C@@H]2O[C@H](CO)[C@H](O)[C@H](n3cc(-c4cc(F)c(Cl)c(F)c4)nn3)[C@H]2OCC(=O)NCCOCCOCCNC(=O)COc2cccc3c2C(=O)N(C2CCC(=O)NC2=O)C3=O)n(-c2cc(Cl)ccc2C(F)(F)F)n1` (stereo partly drawn) [Example 12], the half-inhibitory concentration (IC50) in experiment [1] was 0.02 µM; in experiment [2], 0.52 µM.
On to `Cc1nc([C@@H]2O[C@H](CO)[C@H](O)[C@H](n3cc(-c4cc(F)c(Cl)c(F)c4)nn3)[C@H]2OCC(=O)N2CC(Oc3ccc(C(=O)Nc4ccc5c(c4)CN(C4CCC(=O)N(C)C4=O)C5=O)cc3)C2)n(-c2cc(Cl)ccc2C(F)(F)F)n1` (stereo partly drawn) [Example 28], for which the values for the IC50 in experiment [1] and in experiment [2] were 0.098 µM and 10.4 µM, respectively.
For the molecule `Cc1nc([C@@H]2O[C@H](CO)[C@H](O)[C@H](n3cc(-c4cc(F)c(Cl)c(F)c4)nn3)[C@H]2OCC(=O)N[C@H]2C[C@H](Oc3ccc(C(=O)Nc4ccc5c(c4)CN(C4CCC(=O)N(C)C4=O)C5=O)cc3)C2)n(-c2cc(Cl)ccc2C(F)(F)F)n1` (stereo partly drawn) [Example 17], the IC50 in experiment [1] was 0.14 µM; in experiment [2], more than 50 µM.
On the same counts, the results for `Cc1nc([C@@H]2O[C@H](CO)[C@H](O)[C@H](n3cc(-c4cc(F)c(Cl)c(F)c4)nn3)[C@H]2OCC(=O)NCCOCCOCCOCCNC(=O)c2ccc3c(c2)C(=O)N(C2CCC(=O)NC2=O)C3=O)n(-c2cc(Cl)ccc2C(F)(F)F)n1` (stereo partly drawn) [Example 13] are 0.066 µM and 0.81 µM.
